In series [1] the target is T1, M3 muscarinic receptor subtype (hM3) (Homo sapiens, UniProt P20309).
T1 construct: expressed in transfected cells
Kind of series: Radioligand binding assay ([3H]-NMS displacement). To be noted: tested in this or a similar assay. As for the experimental part: CHO cell lines stably expressing cloned human hM1, hM2, hM3 and hM4 muscarinic receptor subtypes, respectively, were grown to near confluency in medium consisting of HAM's F-12 supplemented with 10% FBS and 250 μg/mL Geneticin. The cells were grown in a 5% CO2, 37° C. incubator and lifted with 2 mM EDTA in dPBS. Cells were collected by 5 minute centrifugation at 650×g, and cell pellets were either stored frozen at −80° C. or membranes were prepared immediately. For membrane preparation, cell pellets were resuspended in lysis buffer and homogenized with a Polytron PT-2100 tissue disrupter (Kinematica AG; 20 seconds×2 bursts). Crude membranes were centrifuged at 40,000×g for 15 minutes at 4° C. […] The protein concentration of the membrane suspension was determined by the method described in Lowry, O. et al., Journal of Biochemistry 193:265 (1951). […]
Radioligand binding assays were performed in 96-well microtiter plates in a total assay volume of 100 μL. […] Filter plates were rinsed three times with wash buffer (10 mM HEPES) to remove unbound radioactivity. […] The plates were then counted in a PerkinElmer Topcount liquid scintillation counter (PerkinElmer Inc., Wellesley, Mass.). Binding data were analyzed by nonlinear regression analysis with the GraphPad Prism Software package (GraphPad Software, Inc., San Diego, Calif.) using the one-site competition model. […]

Series [2] can be described thus: Dynamic moisture sorption assessment. The series is classed as physicochemical. As for the experimental part: A dynamic moisture sorption (DMS) assessment (also known as a moisture sorption-desorption profile) was performed for samples of the crystalline monopropionate salt using a VTI atmospheric microbalance, SGA-100 system (VTI Corp., Hialeah, Fla. 33016). A sample size of approximately 10 mg was used and the humidity was set at the ambient value at the start of the analysis. A typical DMS analysis consisted of three scans: ambient to 2% relative humidity (RH), 2% RH to 90% RH, 90% RH to 5% RH at a scan rate of 5% RH/step. The mass was measured every two minutes and the RH was changed to the next value (+/−5% RH) when the mass of the sample was stable to within 0.01% for 5 consecutive points.

Another series in a line: Thermal analysis (DSC). Format: physicochemical. The following applies: DSC trace. As for the experimental part:
Differential scanning calorimetry (DSC) was performed using a TA Instruments Model Q-10 module with a Thermal Analyst controller. Data were collected and analyzed using TA Instruments Thermal Solutions software. A sample of about 1 mg was accurately weighed into an aluminum pan with lid. The sample was evaluated using a linear heating ramp of 10° C./min from ambient temperature to approximately 300° C. The DSC cell was purged with dry nitrogen during use.

T1 sequence (P20309 whole entry): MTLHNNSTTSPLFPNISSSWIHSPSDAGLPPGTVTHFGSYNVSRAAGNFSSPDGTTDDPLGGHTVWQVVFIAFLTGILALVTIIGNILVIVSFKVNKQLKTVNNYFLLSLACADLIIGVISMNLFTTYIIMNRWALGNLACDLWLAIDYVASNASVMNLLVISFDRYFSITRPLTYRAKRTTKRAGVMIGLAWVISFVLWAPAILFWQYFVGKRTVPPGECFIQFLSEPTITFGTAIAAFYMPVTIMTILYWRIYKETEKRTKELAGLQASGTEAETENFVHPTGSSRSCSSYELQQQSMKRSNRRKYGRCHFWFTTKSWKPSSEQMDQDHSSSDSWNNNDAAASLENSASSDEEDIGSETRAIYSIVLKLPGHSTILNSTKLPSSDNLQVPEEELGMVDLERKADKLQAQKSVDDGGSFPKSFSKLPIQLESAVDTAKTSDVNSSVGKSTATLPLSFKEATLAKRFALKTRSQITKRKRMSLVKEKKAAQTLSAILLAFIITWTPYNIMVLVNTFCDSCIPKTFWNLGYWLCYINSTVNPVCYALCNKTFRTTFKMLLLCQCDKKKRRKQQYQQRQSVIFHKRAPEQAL

Consider `O=C(Nc1ccccc1-c1ccccc1)OC1CCN(CCCN2CCN(CCCNCc3ccc(O)cc3)C2=O)CC1` [Example 1, Biphenyl-2-ylcarbamic Acid 1-(3-{3-[3-(4-Hydroxybenzylamino)propyl]-2-oxoimidazolidin-1-yl}propyl)piperidin-4-yl Ester], for which the Ki in series [1] is under 5 nM.
On to `CCC(=O)O.O=C(Nc1ccccc1-c1ccccc1)OC1CCN(CCCN2CCN(CCCNCc3ccc(O)cc3)C2=O)CC1` [Example 2, Monopropionate Crystalline Salt of Biphenyl-2-ylcarbamic Acid 1-(3-{3-[3-(4-Hydroxybenzylamino)propyl]-2-oxoimidazolidin-1-yl}propyl)piperidin-4-yl Ester], for which the “hygroscopicity (sorption/desorption profile)” value in series [2] (DMS trace) is recorded as “low hygroscopicity”. Further, the weight gain was found to be 1.0% in series [2] (humidity range of 40-70% RH, micronized material); 0.7% in series [2] (humidity range of 40-70% RH, unmicronized); 0.3% in series [2] (humidity range of 40-75% RH). Moreover, in “Thermal analysis (DSC)”, the thermal stability result is “good thermal stability”.

The Ki is the equilibrium dissociation constant of an inhibitor or competing ligand from its target. A low value points to higher affinity.

The record behind these values is patent US7683173B2, “Biphenyl compounds useful as muscarinic receptor antagonists” (Theravance, Inc., priority 2005, dated 2010).
